Assay results as given in patent publication US10544143B2, “4-azaindole compounds” (BRISTOL-MYERS SQUIBB COMPANY, priority 2017, dated 2020).
Read-outs that look alike come from different tables or passages of the source.

Legend:
human TLR8 = human TLR8 (Homo sapiens (Human), UniProt Q9NR97); test: TLR8 inhibition reporter assay (HEK-Blue SEAP);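 also: SEAP driven by IFN-β minimal promoter carrying NF-κB and AP-1 sites, compounds dosed 0.05 nM to 50 µM for 22 h, inhibition scaled between agonist-plus-DMSO and reference-inhibitor wells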
Chain of human TLR8 (Q9NR97 27-1041): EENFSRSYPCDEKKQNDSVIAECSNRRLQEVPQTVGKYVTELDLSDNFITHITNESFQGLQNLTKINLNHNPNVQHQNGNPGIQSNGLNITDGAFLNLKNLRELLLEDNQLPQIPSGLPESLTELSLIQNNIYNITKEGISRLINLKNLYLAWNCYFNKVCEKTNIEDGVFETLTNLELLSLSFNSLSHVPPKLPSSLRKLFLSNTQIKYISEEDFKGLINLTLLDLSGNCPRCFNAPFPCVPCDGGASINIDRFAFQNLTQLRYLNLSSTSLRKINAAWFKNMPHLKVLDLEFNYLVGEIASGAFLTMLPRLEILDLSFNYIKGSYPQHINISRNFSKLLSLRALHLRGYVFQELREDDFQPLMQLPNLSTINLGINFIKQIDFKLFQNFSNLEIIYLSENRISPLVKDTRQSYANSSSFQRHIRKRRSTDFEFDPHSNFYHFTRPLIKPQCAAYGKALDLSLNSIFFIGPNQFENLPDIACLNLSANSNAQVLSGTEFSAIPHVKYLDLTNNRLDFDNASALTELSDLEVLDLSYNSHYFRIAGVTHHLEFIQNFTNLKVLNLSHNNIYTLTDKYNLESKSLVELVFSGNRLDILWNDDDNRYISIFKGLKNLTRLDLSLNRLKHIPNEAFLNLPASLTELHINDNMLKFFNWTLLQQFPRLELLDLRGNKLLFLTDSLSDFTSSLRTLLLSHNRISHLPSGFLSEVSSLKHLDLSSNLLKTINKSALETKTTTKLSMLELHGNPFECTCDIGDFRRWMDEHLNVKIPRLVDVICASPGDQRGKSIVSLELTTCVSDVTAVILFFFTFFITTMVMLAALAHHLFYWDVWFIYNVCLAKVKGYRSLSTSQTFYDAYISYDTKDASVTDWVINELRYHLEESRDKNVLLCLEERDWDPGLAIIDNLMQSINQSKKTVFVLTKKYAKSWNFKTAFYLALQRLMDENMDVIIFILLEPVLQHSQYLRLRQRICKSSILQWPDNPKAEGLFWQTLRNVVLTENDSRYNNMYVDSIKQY
Description: HEK-Blue™-cells (Invivogen) overexpressing human TLR7, TLR8 or TLR9 receptors were used for screening inhibitors of these receptors using an inducible SEAP (secreted embryonic alkaline phosphatase) reporter gene under the control of the IFN-β minimal promoter fused to five NF-κB and AP-1-binding sites. Briefly, cells are seeded into Greiner 384 well plates (15000 cells per well for TLR7, 20,000 for TLR8 and 25,000 for TLR9) and then treated with test compounds in DMSO to yield a final dose response concentration range of 0.05 nM-50 μM. After a 30 minute compound pre-treatment at room temperature, the cells are then stimulated with a TLR7 ligand (gardiquimod at a final concentration of 7.5 μM), TLR8 ligand (R848 at a final concentration of 15.9 μM) or TLR9 ligand (ODN2006 at a final concentration of 5 nM) to activate NF-κB and AP-1 which induce the production of SEAP. After a 22 hour incubation at 37° C., 5% CO2, SEAP levels are determined with the addition of HEK-Blue™ Detection reagent (Invivogen), a cell culture medium that allows for detection of SEAP, according to manufacturer's specifications.

human TLR9 = human TLR9 (Homo sapiens (Human), UniProt Q9NR96); test: TLR9 inhibition reporter assay (HEK-Blue SEAP);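 also: SEAP driven by an IFN-β minimal promoter with NF-κB and AP-1 sites, read after 22 h, compounds dosed 0.05 nM–50 µM, inhibition scaled between agonist plus DMSO and reference-inhibitor wells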
Chain of human TLR9 (Q9NR96 26-1032): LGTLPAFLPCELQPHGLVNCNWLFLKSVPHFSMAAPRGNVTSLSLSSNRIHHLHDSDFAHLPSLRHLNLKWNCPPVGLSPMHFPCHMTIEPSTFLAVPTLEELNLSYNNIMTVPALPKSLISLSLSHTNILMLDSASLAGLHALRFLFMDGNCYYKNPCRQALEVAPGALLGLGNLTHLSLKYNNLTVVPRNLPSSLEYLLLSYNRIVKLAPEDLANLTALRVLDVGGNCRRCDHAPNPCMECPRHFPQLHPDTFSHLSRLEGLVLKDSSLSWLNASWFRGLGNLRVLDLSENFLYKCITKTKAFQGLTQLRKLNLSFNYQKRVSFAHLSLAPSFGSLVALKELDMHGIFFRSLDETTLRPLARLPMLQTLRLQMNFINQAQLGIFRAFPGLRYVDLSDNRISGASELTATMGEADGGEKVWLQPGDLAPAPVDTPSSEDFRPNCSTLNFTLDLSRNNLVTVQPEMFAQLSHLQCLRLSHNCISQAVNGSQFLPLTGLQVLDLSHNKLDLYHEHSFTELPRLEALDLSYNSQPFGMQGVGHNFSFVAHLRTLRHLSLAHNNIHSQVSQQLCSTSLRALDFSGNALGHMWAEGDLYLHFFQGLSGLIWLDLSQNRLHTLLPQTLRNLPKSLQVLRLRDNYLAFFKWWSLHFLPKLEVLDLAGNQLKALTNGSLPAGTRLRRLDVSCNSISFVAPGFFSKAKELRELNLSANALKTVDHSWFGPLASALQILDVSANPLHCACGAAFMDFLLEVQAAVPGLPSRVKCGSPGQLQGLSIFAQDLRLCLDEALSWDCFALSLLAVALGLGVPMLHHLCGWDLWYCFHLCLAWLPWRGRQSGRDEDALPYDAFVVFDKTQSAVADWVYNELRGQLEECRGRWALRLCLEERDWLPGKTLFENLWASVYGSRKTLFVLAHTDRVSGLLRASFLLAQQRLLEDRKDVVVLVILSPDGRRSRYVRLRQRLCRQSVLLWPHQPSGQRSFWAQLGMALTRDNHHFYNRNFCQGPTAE

TLR7 = TLR7 (Mus musculus (Mouse), UniProt P58681); test: In vivo mouse TLR7 PD model (gardiquimod challenge, plasma IL-6 and IFN-alpha); settings: C57BL/6 mice, plasma 90 min after gardiquimod i.p., vs vehicle
Chain of TLR7 (P58681 27-1050): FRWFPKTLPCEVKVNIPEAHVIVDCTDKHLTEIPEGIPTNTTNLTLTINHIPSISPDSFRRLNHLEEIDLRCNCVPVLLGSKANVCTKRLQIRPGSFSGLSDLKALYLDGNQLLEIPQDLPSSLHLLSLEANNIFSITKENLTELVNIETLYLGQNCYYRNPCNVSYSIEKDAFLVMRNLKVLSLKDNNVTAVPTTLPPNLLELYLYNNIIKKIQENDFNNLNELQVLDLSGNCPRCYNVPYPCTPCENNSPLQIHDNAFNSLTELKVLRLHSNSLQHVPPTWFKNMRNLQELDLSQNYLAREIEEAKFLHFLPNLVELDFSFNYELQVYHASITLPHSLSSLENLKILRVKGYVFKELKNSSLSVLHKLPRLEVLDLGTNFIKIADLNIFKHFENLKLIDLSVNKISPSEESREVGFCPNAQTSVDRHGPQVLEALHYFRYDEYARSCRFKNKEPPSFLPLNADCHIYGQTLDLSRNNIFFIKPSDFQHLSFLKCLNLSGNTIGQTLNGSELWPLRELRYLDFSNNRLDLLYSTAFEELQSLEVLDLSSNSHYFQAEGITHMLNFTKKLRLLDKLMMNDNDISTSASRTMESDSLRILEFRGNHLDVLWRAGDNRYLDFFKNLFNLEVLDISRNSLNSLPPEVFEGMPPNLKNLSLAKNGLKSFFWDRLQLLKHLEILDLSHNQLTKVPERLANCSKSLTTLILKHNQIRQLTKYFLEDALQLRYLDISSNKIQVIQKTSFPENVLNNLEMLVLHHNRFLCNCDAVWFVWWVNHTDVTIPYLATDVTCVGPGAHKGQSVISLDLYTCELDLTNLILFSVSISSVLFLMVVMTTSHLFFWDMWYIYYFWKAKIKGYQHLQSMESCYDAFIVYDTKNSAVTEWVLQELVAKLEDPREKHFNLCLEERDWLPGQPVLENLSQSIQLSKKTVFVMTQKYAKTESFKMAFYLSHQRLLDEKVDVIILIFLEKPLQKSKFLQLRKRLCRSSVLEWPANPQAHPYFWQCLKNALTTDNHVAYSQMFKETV
Description: In Vivo Mouse TLR7 PD Model:
Adult male C57BL/6 mice were used for the experiments. Mice (7 to 10 per group) were randomized into different treatment groups based on body weight. Mice from the respective treatment groups were administered orally with vehicle or test compound. Thirty min after the oral administration of vehicle or test compound, mice were challenged with intraperitoneal injection of gardiquimod for TLR7 PD model. Ninety minutes after gardiquimod injection, mice were bled under isoflurane anaesthesia and plasma IL-6 and IFN-alpha levels were estimated by using commercially available ELISA kit (BD Biosciences, PBL Life Sciences). At the end of experiment, mean cytokine data was plotted and one way ANOVA with Dunnett's test was performed to calculate the significance of test compound treated group vs. vehicle control group. Percent inhibition of cytokine induction was calculated for test compound treated group vs vehicle control group.

human TLR7 = human TLR7 (Homo sapiens (Human), UniProt Q9NYK1); test: TLR7 inhibition reporter assay (HEK-Blue SEAP); assay type: cell-based
Chain of human TLR7 (Q9NYK1 27-1049): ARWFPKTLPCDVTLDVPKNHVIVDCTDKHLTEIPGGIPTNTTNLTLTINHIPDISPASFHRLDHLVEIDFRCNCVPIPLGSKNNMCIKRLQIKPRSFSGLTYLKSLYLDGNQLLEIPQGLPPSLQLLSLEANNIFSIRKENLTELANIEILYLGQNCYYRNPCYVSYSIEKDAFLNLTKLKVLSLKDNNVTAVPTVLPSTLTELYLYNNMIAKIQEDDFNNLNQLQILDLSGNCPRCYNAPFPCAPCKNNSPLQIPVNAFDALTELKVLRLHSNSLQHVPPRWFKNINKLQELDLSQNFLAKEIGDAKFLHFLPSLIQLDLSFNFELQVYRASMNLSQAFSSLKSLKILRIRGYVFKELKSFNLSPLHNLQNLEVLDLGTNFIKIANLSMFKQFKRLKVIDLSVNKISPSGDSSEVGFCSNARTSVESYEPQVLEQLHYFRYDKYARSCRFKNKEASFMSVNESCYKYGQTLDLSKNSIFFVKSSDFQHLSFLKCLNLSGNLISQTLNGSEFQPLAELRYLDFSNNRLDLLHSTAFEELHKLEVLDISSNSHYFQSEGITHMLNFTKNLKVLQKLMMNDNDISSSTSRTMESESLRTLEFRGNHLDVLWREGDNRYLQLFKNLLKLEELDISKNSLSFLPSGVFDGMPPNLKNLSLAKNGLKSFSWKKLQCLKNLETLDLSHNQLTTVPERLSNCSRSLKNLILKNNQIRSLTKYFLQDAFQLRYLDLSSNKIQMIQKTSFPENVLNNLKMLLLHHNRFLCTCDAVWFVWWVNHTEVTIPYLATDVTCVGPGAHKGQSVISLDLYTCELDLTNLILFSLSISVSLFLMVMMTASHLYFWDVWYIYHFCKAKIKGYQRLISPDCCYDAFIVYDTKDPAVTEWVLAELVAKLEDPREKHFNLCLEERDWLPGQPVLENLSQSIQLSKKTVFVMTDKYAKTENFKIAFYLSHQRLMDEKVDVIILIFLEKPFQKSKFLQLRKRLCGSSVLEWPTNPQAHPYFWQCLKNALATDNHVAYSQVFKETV

[1] = read-out: TLR8 IC50, HEK-Blue cells overexpressing human TLR8, R848 15.9 μM stimulation, SEAP reporter
[2] = read-out: TLR9 IC50, HEK-Blue cells overexpressing human TLR9, ODN2006 5 nM stimulation, SEAP reporter
[3] = HEK-Blue cells overexpressing human TLR7, gardiquimod 7.5 μM stimulation, SEAP reporter
[4] = read-out: TLR8 IC50, HEK-Blue cells overexpressing human TLR8, SEAP reporter, R848 15.9 μM
[5] = read-out: TLR9 IC50, HEK-Blue cells overexpressing human TLR9, SEAP reporter, ODN2006 5 nM
[6] = HEK-Blue cells overexpressing human TLR7, SEAP reporter, gardiquimod 7.5 μM
[7] = read-out: TLR8 IC50, HEK-Blue human TLR8 cells, R848 15.9 μM
[8] = read-out: TLR9 IC50, HEK-Blue human TLR9 cells, ODN2006 5 nM
[9] = HEK-Blue human TLR7 cells, gardiquimod 7.5 μM
[10] = TLR8 IC50, HEK-Blue human TLR8 cells, R848 15.9 μM
[11] = TLR9 IC50, HEK-Blue human TLR9 cells, ODN2006 5 nM

| SMILES | IC50 (human TLR8; [1]) | IC50 (human TLR9; [2]) | IC50 (human TLR7; [3]) | IC50 (human TLR8; [7]) | IC50 (human TLR9; [8]) | IC50 (human TLR7; [9]) | further results |
| --- | --- | --- | --- | --- | --- | --- | --- |
| Cc1c(-c2[nH]c3ccc(N4CCN(C(=O)CN(C)C)CC4)nc3c2C(C)C)cn2ncnc2c1C [Example 3, 1-(4-(2-(7,8-dimethyl-[1,2,4]triazolo[1,5-a]pyridin-6-yl)-3-isopropyl-1H-pyrrolo[3,2-b]pyridin-5-yl)piperazin-1-yl)-2-(dimethylamino)ethan-1-one] | 1.1 nM | 8540 nM | 0.93 nM | – | – | – | % inhibition of IFN-alpha (TLR7; 0.005 mg/kg oral): 29%; % inhibition of IL6 (TLR7; 0.005 mg/kg oral): 0%; % inhibition of IFN-alpha (TLR7; 0.01 mg/kg oral): 37%; % inhibition of IL6 (TLR7; 0.01 mg/kg oral): 24%; % inhibition of IFN-alpha (TLR7; 0.05 mg/kg oral): 94%; % inhibition of IL6 (TLR7; 0.05 mg/kg oral): 75%; % inhibition of IFN-alpha (TLR7; 0.25 mg/kg oral): 99%; % inhibition of IL6 (TLR7; 0.25 mg/kg oral): 90%; % inhibition of IFN-alpha (TLR7; 0.5 mg/kg oral): 100%; % inhibition of IL6 (TLR7; 0.5 mg/kg oral): 91% |
| Cc1c(-c2[nH]c3ccc(C4CCC(NCC5(S(C)(=O)=O)CC5)CC4)nc3c2C(C)C)cn2ncnc2c1C (centres unmarked) [Example 4, 4-(2-(7,8-dimethyl-[1,2,4]triazolo[1,5-a]pyridin-6-yl)-3-isopropyl-1H-pyrrolo[3,2-b]pyridin-5-yl)-N-((1-(methylsulfonyl)cyclopropyl)methyl)cyclohexan-1-amine] | 0.71 nM | 1070 nM | 0.6 nM | – | – | – | % inhibition of IFN-alpha (TLR7; 0.0015 mg/kg oral): 0%; % inhibition of IL6 (TLR7; 0.0015 mg/kg oral): 0%; % inhibition of IFN-alpha (TLR7; 0.003 mg/kg oral): 33%; % inhibition of IL6 (TLR7; 0.003 mg/kg oral): 23%; % inhibition of IFN-alpha (TLR7; 0.015 mg/kg oral): 74%; % inhibition of IL6 (TLR7; 0.015 mg/kg oral): 75%; % inhibition of IFN-alpha (TLR7; 0.075 mg/kg oral): 93%; % inhibition of IL6 (TLR7; 0.075 mg/kg oral): 76%; % inhibition of IFN-alpha (TLR7; 0.15 mg/kg oral): 99%; % inhibition of IL6 (TLR7; 0.15 mg/kg oral): 95% |
| COc1cc(-c2[nH]c3ccc(C4CN(CC(C)(C)O)C4)nc3c2C(C)C)cn2ncnc12 [Example 657] | – | – | – | – | – | – | IC50 (human TLR8; [4]): 10 nM; IC50 (human TLR9; [5]): 842 nM; IC50 (human TLR7; [6]): 2.1 nM |
| CNC(=O)CN1CCC(c2ccc3[nH]c(-c4cc(C)c(=O)n(C)c4)c(C(C)C)c3n2)CC1 [Example 530] | – | – | – | – | – | – | IC50 (human TLR8; [4]): 8.8 nM; IC50 (human TLR9; [5]): 4760 nM; IC50 (human TLR7; [6]): 7.1 nM |
| Cc1c(-c2[nH]c3ccc(N4CC5(CN(CC#N)C5)C4)nc3c2C(C)C)cn2ncnc2c1C [Example 1008] | – | – | – | 32 nM | 13300 nM | 15 nM | – |
| Cc1c(-c2[nH]c3ccc(N4CCC(NC5CCOCC5)CC4)nc3c2C(C)C)cn2ncnc2c1C [Example 49] | 0.62 nM | 2670 nM | 1 nM | – | – | – | – |
| Cc1cc(-c2[nH]c3cc(F)c(C4CCNCC4)nc3c2C(C)C)cn2ncnc12 [Example 11, 6-(6-fluoro-3-isopropyl-5-(piperidin-4-yl)-1H-pyrrolo[3,2-b]pyridin-2-yl)-8-methyl-[1,2,4]triazolo[1,5-a]pyridine] | 21 nM | 6790 nM | 1.7 nM | – | – | – | – |
| Cc1c(-c2[nH]c3ccc(C4CCC(N(C)C5COC5)CC4)nc3c2C(C)C)cn(C)c(=O)c1C (centres unmarked) [Example 249] | 7.3 nM | 5980 nM | 25 nM | – | – | – | – |
| Cc1c(-c2[nH]c3ccc(C4CCC(N(C)C5COC5)CC4)nc3c2C(C)C)cn2ncnc2c1C (single isomer, unassigned) [Example 430, N-(4-(2-(7,8-dimethyl-[1,2,4]triazolo[1,5-a]pyridin-6-yl)-3-isopropyl-1H-pyrrolo[3,2-b]pyridin-5-yl)cyclohexyl)-N-methyloxetan-3-amine] | – | – | – | – | – | – | IC50 (human TLR8; [4]): 14 nM; IC50 (human TLR9; [5]): 15100 nM; IC50 (human TLR7; [6]): 13 nM |
| COc1cc(-c2[nH]c3ccc(N4CC5(CN(C)C5)C4)nc3c2C(C)C)cn2ncnc12 [Example 1017] | – | – | – | 16 nM | 3300 nM | 1.3 nM | – |
| Cc1c(-c2[nH]c3ccc(N4C[C@H](C)N(C(C)C)C[C@@H]4C)nc3c2C(C)C)cn2ncnc2c1C [Example 793] | – | – | – | – | – | – | IC50 (human TLR8; [4]): 1.4 nM; IC50 (human TLR9; [5]): 7830 nM; IC50 (human TLR7; [6]): 1.4 nM |
| Cc1c(-c2[nH]c3ccc(N4C[C@@H](C)N(C(=O)CCN5CC6(CCO6)C5)C[C@@H]4C)nc3c2C(C)C)cn2ncnc2c1C [Example 958] | – | – | – | 2.3 nM | 11200 nM | 0.27 nM | – |
| Cc1c(-c2[nH]c3ccc(C4CC5(C4)CN(CCS(C)(=O)=O)C5)nc3c2C(C)C)cn2ncnc2c1C [Example 1026] | – | – | – | 6.3 nM | 14500 nM | 4.5 nM | – |
| CCCN1CC2(C1)CN(c1ccc3[nH]c(-c4cn5ncnc5c(C)c4C)c(C(C)C)c3n1)C2 [Example 1015] | – | – | – | 7.8 nM | 2380 nM | 1.3 nM | – |
| Cc1c(-c2[nH]c3ccc(N4CCN(C(=O)CN5CC6(COC6)C5)C[C@H]4C)nc3c2C(C)C)cn2ncnc2c1C [Example 931] | – | – | – | 3.9 nM | 14900 nM | 2.5 nM | – |
| Cc1c(-c2[nH]c3ccc(N4CCNC(=O)C4)nc3c2C(C)C)cn2ncnc2c1C [Example 150] | 2.7 nM | > 50000 nM | 12 nM | – | – | – | – |
| [2H]C1([2H])N(C(=O)CN(C)C)C([2H])([2H])C([2H])([2H])N(c2ccc3[nH]c(-c4cn5ncnc5c(C)c4C)c(C(C)C)c3n2)C1([2H])[2H] (single isomer, unassigned) [Example 858] | – | – | – | – | – | 1.1 nM | IC50 (human TLR8; [10]): 1.3 nM; IC50 (human TLR9; [11]): 7130 nM |
| COCCN1CC2(C1)CN(c1ccc3[nH]c(-c4cn5ncnc5c(C)c4C)c(C(C)C)c3n1)C2 [Example 1013] | – | – | – | 9.2 nM | 7680 nM | 11 nM | – |
| Cc1c(-c2[nH]c3ccc(N4C[C@@H](C)N(C(=O)CN(C)C(C)(C)C)[C@H](C)C4)nc3c2C(C)C)cn2ncnc2c1C [Example 926] | – | – | – | 3 nM | 3040 nM | 3.3 nM | – |
| [2H]C([2H])([2H])N(CC(=O)N1C([2H])([2H])C([2H])([2H])N(c2ccc3[nH]c(-c4cn5ncnc5c(C)c4C)c(C(C)C)c3n2)C([2H])([2H])C1([2H])[2H])C([2H])([2H])[2H] (single isomer, unassigned) [Example 859] | – | – | – | – | – | 0.97 nM | IC50 (human TLR8; [10]): 1.5 nM; IC50 (human TLR9; [11]): 7310 nM |
| COc1cc(-c2[nH]c3cc(C)c(C4CCC(N(C)CC(C)(C)C)CC4)nc3c2C(C)C)cn2ncnc12 (centres unmarked) [Example 334] | 127 nM | 2400 nM | 4.6 nM | – | – | – | – |
| Cc1c(-c2[nH]c3ccc(C4CCC(NC5CCS(=O)(=O)C5)CC4)nc3c2C(C)C)cn2ncnc2c1C (centres unmarked) [Example 465] | – | – | – | – | – | – | IC50 (human TLR8; [4]): 1.9 nM; IC50 (human TLR9; [5]): 5660 nM; IC50 (human TLR7; [6]): 1.1 nM |
| COc1cc(-c2[nH]c3cc(C)c(C4CCC(N(C)CC(C)(C)C)CC4)nc3c2C(C)C)cn2ncnc12 (centres unmarked) [Example 336] | 48 nM | 3440 nM | 2.8 nM | – | – | – | – |
